From ChEMBL document CHEMBL1255527, “Structure-activity relationships of tulipalines, tuliposides, and related compounds as inhibitors of MurA” (Bioorg Med Chem Lett, 2010) come the findings set out here.

Values after ≈ are worked out from the molar mass of the structure shown. Active and inactive are the calls of the source. No cut-off for these calls is given here.

Series [1] can be described thus: Inhibition of Escherichia coli MurA at 25 uM. Also on record: species or system Escherichia coli BL21.
The test system of a further series is Escherichia coli BL21. Kind of series: Inhibition of Escherichia coli MurA. Further details: concentration or dose not given beside the values.
For series [2], the system named is Escherichia coli. Briefly: Antimicrobial activity against Escherichia coli BL21 assessed as growth inhibition at 200 uM after 24 hrs. Type of series: functional. The following applies: for inhibition at 200 µM: BL21, BL21, 24 h.
The subject of series [3] is Escherichia coli. Kind of series: Antimicrobial activity against Escherichia coli BL21 assessed as growth inhibition at 200 uM in presence of minimum medium. In kind it is functional.
Series [4] concerns Escherichia coli BL21 [C115D]. Kind of series: Inhibition of Escherichia coli MurA C115D mutant at 25 uM.
Series [5] deals with Escherichia coli. Briefly: Antimicrobial activity against Escherichia coli BL21 after 24 hrs. Type of series: functional. The settings on record: BL21, 24 h.
For series [6], the system named is Escherichia coli. Briefly: Antimicrobial activity against Escherichia coli BL21 expressing MurA C115D mutant assessed as growth inhibition at 200 uM in presence of kanamycin. Type of series: functional.
The subject of series [7] is Escherichia coli. Kind of series: Antimicrobial activity against Escherichia coli BL21 expressing MurA C115D mutant assessed as growth inhibition at 200 uM after 20 hrs in presence of kanamycin and 1 mM IPTG. In kind it is functional.
Series [8] has as its system Escherichia coli. Kind of series: Antimicrobial activity against Escherichia coli BL21 assessed as growth inhibition at 200 uM in presence of IPTG. Type of series: functional.
For series [9], the system named is Escherichia coli. Kind of series: Antimicrobial activity against Escherichia coli BL21 expressing MurA C115D mutant assessed as growth inhibition at 200 uM after 20 hrs in presence of kanamycin and 0.5 mM IPTG. In kind it is functional.
Series [10] is described as follows: Electrophilicity, glutathione reactivity of the compound assessed as half life. In kind it is physicochemical. The settings on record: glutathione (reaction with glutathione).

For orientation: IC50 means the concentration at which inhibition is half-maximal. In general, inhibition refers to the change of the read-out against control, counted positive when it falls. With `C=C1C(=O)OC(CBr)C1O` (centres undefined), the half-inhibitory concentration (IC50) in series [1] was found to be 10.4 µM. The inhibition with Escherichia coli BL21 (concentration not given here) amounted to 85%; in [4], 18%. Besides, the inhibition at 200 µM amounted to 84% in the series with Escherichia coli [2] and 103% in the series with Escherichia coli [3].
As for `C=C(CO)C(=O)OC`, the inhibition result (in the series on Escherichia coli BL21; with Escherichia coli [2]; in the series with Escherichia coli [3]; in [4]) was “inactive” in each case.
As to `C=C(CP(=O)(O)O)C(=O)O`, the inhibition in the series on Escherichia coli BL21 (concentration not given here) was found to be 13%. Moreover, the inhibition entry (in the series with Escherichia coli [2]; in the series with Escherichia coli [3]; in [4]) was “inactive” in each case.
Consider `C=C(C(=O)OC)C(O)C1COC(C)(C)O1` (centres undefined), for which the inhibition entry (in the series on Escherichia coli BL21; in the series on Escherichia coli [2]; with Escherichia coli [3]; in series [4]) was “inactive” each time.
Usually MBC stands for the lowest tested concentration that kills the bacteria rather than only halting them. What is called MIC is the lowest concentration found to suppress growth. Consider `C=C(C(=O)O[C@@H]1O[C@H](CO)[C@@H](O)[C@H](O)[C@H]1O)[C@@H](O)CO` [1-TULIPOSIDE B], for which the minimal bactericidal concentration (MBC) against Escherichia coli [5] turned out to be 50 µM (≈ 14.7 µg/mL). This molecule displayed an MIC against Escherichia coli [5] of 6.25 µM (≈ 1.84 µg/mL). Besides, in series [1], the IC50 was found to be 5 µM. The inhibition in the series with Escherichia coli BL21 (concentration not given here) stood at 84%. Besides, the values for the inhibition at 200 µM in the series on Escherichia coli [2] and with Escherichia coli [3] were 64% and 97%, respectively. In series [4], the inhibition result is “inactive”.
`C=C(CCO)C(=O)O`: the inhibition entry (with Escherichia coli BL21; in the series with Escherichia coli [3]; in series [4]) was “inactive” each time.
In the case of `C=C(CP(=O)(OCC)OCC)C(=O)OC`, the inhibition in the series with Escherichia coli BL21 (concentration not given here) was determined as 20%. The inhibition result (with Escherichia coli [2]; with Escherichia coli [3]; in series [4]) was “inactive” in each case.
As for `C=C(CCO)C(=O)O[C@@H]1O[C@H](CO)[C@@H](O)[C@H](O)[C@H]1O`, in the series on Escherichia coli BL21 (concentration not given here), the inhibition amounted to 11%. Besides, the inhibition result (with Escherichia coli [2]; with Escherichia coli [3]; in [4]) was “inactive” in each case.
`C=C1C(=O)OCC1O` (racemic) [(+/-)-TULIPALINE B]: the outcome with Escherichia coli [6], in the series on Escherichia coli [7], in the series on Escherichia coli [8] and with Escherichia coli [9] was inactive. In the series with Escherichia coli [5], this molecule came in with an MBC of 200 µM (≈ 22.8 µg/mL). In the series on Escherichia coli [5], this molecule came in with an MIC of 12.5 µM (≈ 1.43 µg/mL). In [1], the IC50 turned out to be 2 µM. For the same molecule, the inhibition in the series on Escherichia coli BL21 (concentration not given here) came out at 97%. In addition, the values for the inhibition at 200 µM in the series with Escherichia coli [2] and in the series on Escherichia coli [3] were 62% and 93%, respectively. Further, the inhibition entry in [4] is “inactive”.
On to `C=C(C(=O)OC)C(OC(C)=O)C(O)CO` (centres undefined), for which it took 4.5 µM to reach half-maximal inhibition in series [1] (IC50). The inhibition in the series on Escherichia coli BL21 (concentration not given here) amounted to 79%; in [4], 10%. Also, the figures for the inhibition at 200 µM in the series on Escherichia coli [2] and in the series on Escherichia coli [3] were 30% and 98%, respectively.
On to `C=C(C(=O)O)C(O)C(O)CO` (centres undefined), for which the inhibition entry (in the series on Escherichia coli BL21; in the series on Escherichia coli [2]; in the series with Escherichia coli [3]; in series [4]) was “inactive” each time.
As a reminder, the half-life is how long it takes for the measured level to halve. As for `C[C@@H]1O[C@@H]1P(=O)(O)O` [FOSFOMYCIN], the half-life in [10] was over 60 h. In addition, the result in the series on Escherichia coli [6] and with Escherichia coli [8] was inactive. Besides, the outcome in the series with Escherichia coli [7] and in the series on Escherichia coli [9] was Active. For the same molecule, the minimum bactericidal concentration (MBC) in the series on Escherichia coli [5] is 200 µM (≈ 27.6 µg/mL). Also, in the series on Escherichia coli [5], 50 µM (≈ 6.9 µg/mL) was the least that counted as inhibitory (MIC). This molecule also displayed an IC50 in series [1] of 0.1 µM. The inhibition with Escherichia coli BL21 (concentration not given here) came to 99%. Moreover, the inhibition at 200 µM with Escherichia coli [2] turned out to be 100%; in the series with Escherichia coli [3] it was 96%. Also, the inhibition result in series [4] is “inactive”.
For the molecule `C=C1C(=O)O[C@@H]2/C=C(\CO)CC/C=C(\C)C[C@H](OC(=O)C(=C)[C@H](O)CO)[C@@H]12` [CNICIN], the outcome with Escherichia coli [6], in the series on Escherichia coli [7], in the series on Escherichia coli [8] and in the series with Escherichia coli [9] was inactive. The molecule also displayed an MBC in the series on Escherichia coli [5] of 200 µM (≈ 75.7 µg/mL). Further, the MIC against Escherichia coli [5] was 25 µM (≈ 9.46 µg/mL). The molecule further registered an IC50 in series [1] of 16.7 µM. In addition, in the series with Escherichia coli BL21 (concentration not given here), the inhibition came to 97%. For the same molecule, the figures for the inhibition at 200 µM in the series with Escherichia coli [2] and in the series with Escherichia coli [3] were 19% and 92%, respectively. In series [4], the inhibition entry was “inactive”.
As to `C=C(CP(=O)(O)O)C(=O)OC`, the inhibition result (with Escherichia coli BL21; in the series with Escherichia coli [2]; in the series on Escherichia coli [3]; in [4]) was “inactive” each time.
Turning to `C=C(C(=O)O)C(O)CO` (centres undefined), the half-life in series [10] is under 7 h. Further, the outcome in the series with Escherichia coli [6], in the series on Escherichia coli [7], in the series with Escherichia coli [8] and in the series on Escherichia coli [9] was inactive. Further, the MBC with Escherichia coli [5] was 25 µM (≈ 3.3 µg/mL). Besides, in the series with Escherichia coli [5], 1.56 µM (≈ 0.206 µg/mL) was the least that counted as inhibitory (MIC). The molecule also registered a concentration for half-maximal inhibition (IC50) in series [1] of 8.6 µM. For the same molecule, the inhibition in the series on Escherichia coli BL21 (concentration not given here) is 87%. For the same molecule, the figures for the inhibition at 200 µM in the series on Escherichia coli [2] and in the series on Escherichia coli [3] were 18% and 100%, respectively. The inhibition result in [4] is “inactive”.
As to `C=C1CC(CO)OC1=O` (centres undefined), the inhibition with Escherichia coli BL21 (concentration not given here) was found to be 17%. Further, the inhibition entry (in the series with Escherichia coli [2]; in [4]) was “inactive” each time. Moreover, in the series with Escherichia coli [3], the inhibition at 200 µM was found to be 47%.
For the molecule `C=C1CCOC1=O` [TULIPALINE A], the inhibition result (in the series with Escherichia coli BL21; in the series on Escherichia coli [3]; in series [4]) was “inactive” in each case. Besides, the inhibition at 200 µM in the series on Escherichia coli [2] was 5%.
`C=C(C(=O)OC)C(O)C(O)CO` (centres undefined): 6.3 µM corresponded to half-maximal inhibition in [1] (IC50). In addition, the inhibition is 77% in the series on Escherichia coli BL21 (concentration not given here) and 10% in series [4]. In the series with Escherichia coli [2], the inhibition at 200 µM worked out at 17%.
Take `C=C(CBr)C(=O)OC` [METHYL BROMOMETHYL ACRYLATE]: the inhibition with Escherichia coli BL21 (concentration not given here) came out at 55%. For the same molecule, the values for the inhibition at 200 µM in the series with Escherichia coli [2] and in the series with Escherichia coli [3] were 20% and 101%, respectively. The inhibition entry in [4] is “inactive”.
As to `C=C(CO)C(=O)O`, the half-life in [10] is over 60 h. Moreover, the inhibition result (in the series on Escherichia coli BL21; in the series with Escherichia coli [2]; in the series with Escherichia coli [3]; in series [4]) was “inactive” throughout.
In the case of `C=C1CC(COC(C)=O)OC1=O` (centres undefined), the inhibition result (in the series with Escherichia coli BL21; with Escherichia coli [2]; in [4]) was “inactive” in each case. Further, in the series with Escherichia coli [3], the inhibition at 200 µM turned out to be 74%.
Molecule `C=C1C(=O)OC(CO)C1O` (centres undefined) came in with a half-maximal inhibitory concentration (IC50) in series [1] of 6.6 µM. The inhibition with Escherichia coli BL21 (concentration not given here) is 74%. Moreover, the inhibition at 200 µM with Escherichia coli [2] came out at 26%; in the series with Escherichia coli [3], 102%. The inhibition entry in [4] was “inactive”.
